Assay results as given in paper PMC5250654 (Clinical Drug Investigation, 2016).
pIC50: −log10 of the molar value. Entries after “also recorded” stand apart in the source; their conditions may differ. Where two headings read alike, the source gives them in different places.

Legend:
[1] = test system: anti-immunoglobulin E-stimulated CD63 expression on basophils; assay: CD63 assay: ex vivo anti-IgE-stimulated CD63 expression on whole-blood basophils; type: cell-based, human
[2] = Aqueous solubility of mono-mesylate salt; type: physicochemical
[3] = Safety and tolerability, FIH study; type: in vivo, human
[4] = Safety and tolerability, fed studies; type: in vivo, human; details: n = 40
[5] = for C trough: Day 7 (steady state), mean (%CV)
[6] = fed vs fasted, dose-dependent
[7] = target: uridine 5′-diphospho-glucuronosyltransferase (UGT) 1A1; details: read-out: UGT1A1 inhibition IC50; in vitro; cited from earlier work
[8] = test system: relapsed or refractory CLL; details: 800 mg twice-daily oral, relapsed or refractory CLL (n = 41), cited from earlier work
clinical [9] = details: human, in vivo, po
clinical [10] = details: human, in vivo; for Tmax: t max; for Tmax / half-life: fasted; for half-life: t ½
B cell malignancies = details: 200 or 250 mg twice daily, cited from earlier work
[11] = FIH study (fasted), multiple dose, n = 56
[12] = FIH study (fasted), single dose, n = 40
[13] = po, 200 mg, Day 7 (steady state), 200 mg twice daily oral, median (interquartile range)
[14] = po, 600 mg, Day 7 (steady state), 600 mg twice daily oral, median (interquartile range)
[15] = po, 1200 mg, Day 7 (steady state), 1200 mg twice daily oral, median (interquartile range)

Compound: c1cn2cc(-c3ccc4cn[nH]c4c3)nc(Nc3ccc(N4CCOCC4)cc3)c2n1 [entospletinib, Entospletinib]
- inhibition of CD63 expression maintained at C trough ([1]; doses ≥600 mg twice daily, 12 h post-dose): ≥ 63%
- maximal mean inhibition of CD63 expression ([1]; doses ≥600 mg twice daily, peak at 2–4 h post-dose): ≥ 86%
- EC50 for inhibition of CD63 ([1]; plasma concentration–response, percentage of baseline): 0.429 µg/mL
- solubility ([2]; aqueous buffer, pH 2): 3000 µg/mL
- solubility ([2]; aqueous medium): < 1 µg/mL
- severity of adverse events ([3]; FIH and fed studies): mild to moderate; also recorded: mild or moderate
- discontinuations due to treatment-related AEs ([3]; FIH study): no AE-driven study drug discontinuations
- Laboratory abnormality Grade ≥3: ALT [3, 11]: 1 (1.8) n (%)
- Laboratory abnormality Grade ≥3: AST [3, 11]: 1 (1.8) n (%)
- Laboratory abnormality Grade ≥3: Total bilirubin [3, 11]: 1 (1.8) n (%)
- Treatment-related AE: Headache [3, 11]: 18 (32.1) n (%)
- Treatment-related AE: Oropharyngeal pain [3, 11]: 6 (10.7) n (%)
- Treatment-related AE: Rhinorrhea [3, 11]: 7 (12.5) n (%)
- Laboratory abnormality Grade ≥3: Creatinine kinase [3, 12]: 1 (2.5) n (%)
- Treatment-related AE: Headache [3, 12]: 5 (12.5) n (%)
- Treatment-related AE: Nausea [3, 12]: 6 (10.7) n (%)
- tolerability ([3]; single or multiple oral doses, healthy adults): generally well-tolerated; also recorded: When administered in single or multiple oral doses in healthy adults, entospletinib monotherapy is generally well-tolerated
- Treatment-related AE: Headache [4]: 10 (25.0) n (%)
- Treatment-related AE: Oropharyngeal pain [4]: 5 (12.5) n (%)
- Treatment-related AE: Urinary tract infection [4]: 1 (2.5) n (%)
- increase in exposure (C max and AUC) on day 7 compared with day 1 ([5]; 7 days of twice-daily dosing, fasted): 2- to 4 fold
- C trough ([5]; 25 mg twice daily oral, fasted): 11.9 (64.5) ng/mL
- C trough ([5]; 75 mg twice daily oral, fasted): 79.2 (64.0) ng/mL
- C trough ([5]; 200 mg twice daily oral, fasted): 380 (63.3) ng/mL
- C trough ([5]; 600 mg twice daily oral, fasted): 1242 (65.6) ng/mL
- C trough ([5]; 900 mg twice daily oral, fasted): 1473 (67.2) ng/mL
- C trough ([5]; 1200 mg twice daily oral, fasted): 1471 (79.6) ng/mL
- steady-state C trough levels ([5]; doses of 600 mg twice daily or higher): > 1200 ng/mL
- terminal t ½ ([5]; single and multiple oral administration, fasted): 9 h
- reduction in AUC under fed conditions [6]: 20–80%
- reduction in C max under fed conditions [6]: 20–70%
- pIC50 [7]: ~5.60
- progression-free survival (PFS) rate ([8]; at 24 weeks): 70.1%
- median PFS [8]: 13.8 months
- half-life (clinical [9]): ~9 h
- AUC(0-inf) (clinical [9]; 25 mg): 231 ng·h/mL
- Cmax (clinical [9]; 25 mg): 42.3 ng/mL
- Tmax (clinical [9]; 25 mg): 2 h
- half-life (clinical [9]; 25 mg): 6.77 h
- AUC(0-inf) (clinical [9]; 75 mg): 413 ng·h/mL
- Cmax (clinical [9]; 75 mg): 67.8 ng/mL
- Tmax (clinical [9]; 75 mg): 2.75 h
- half-life (clinical [9]; 75 mg): 5.31 h
- AUC(0-inf) (clinical [9]; 200 mg): 4250 ng·h/mL
- Cmax (clinical [9]; 200 mg): 534 ng/mL
- Tmax (clinical [9]; 200 mg): 2 h
- half-life (clinical [9]; 200 mg): 9.51 h
- Cmax (clinical [9]; 600 mg): 779 ng/mL
- Tmax (clinical [9]; 600 mg): 2 h
- half-life (clinical [9]; 600 mg): 7.72 h
- AUC(0-inf) (clinical [9]; 1200 mg): 9740 ng·h/mL
- Cmax (clinical [9]; 1200 mg): 1060 ng/mL
- Tmax (clinical [9]; 1200 mg): 3.25 h
- half-life (clinical [9]; 1200 mg): 9.59 h
- Tmax (clinical [10]; [13]): 2.27 h
- half-life (clinical [10]; [13]): 10 h
- Tmax (clinical [10]; [14]): 2.25 h
- half-life (clinical [10]; [14]): 15.4 h
- AUC(0-t) (clinical [10]; po, 900 mg): 5860 ng·h/mL
- Tmax (clinical [10]; [15]): 2.75 h
- half-life (clinical [10]; [15]): 13.9 h
- half-life (clinical [10]; doses ≤200 mg twice daily): ~9 h

Compound: COc1cc(Nc2ncc(F)c(Nc3ccc4c(n3)N(COP(=O)(O)O)C(=O)C(C)(C)O4)n2)cc(OC)c1OC [fostamatinib]
- overall response rate (ORR) (B cell malignancies; CLL/small lymphocyte leukemia): 55%
- overall response rate (ORR) (B cell malignancies; DLBCL): 22%
- overall response rate (ORR) (B cell malignancies; FL): 10%
- overall response rate (ORR) (B cell malignancies; MCL): 11%
